Among the data in patent publication US20060041123A1, “Antibacterial agents” (priority 2002, published 2006) are MIC values, retold here.

A short description of the assay: Antimicrobial activity assay: whole-cell MIC by broth microdilution (NCCLS M7-A6). It is filed as cell-based. The settings on record: versus all the organisms named above (S. aureus WCUH29, S. pneumoniae 1629, S. pyogenes CN 10, E. faecalis 2, H. influenzae NEMC1, E. coli 7623, M. catarrhalis Ravasio); read-out: MIC. On the procedure: Whole-cell antimicrobial activity was determined by broth microdilution using the National Committee for Clinical Laboratory Standards (NCCLS) recommended procedure, Document M7-A6, “Methods for Dilution Susceptibility Tests for Bacteria that Grow Aerobically”. The compounds were tested in serial two-fold dilutions ranging from 0.016 to 16 mcg/mL. Compounds were evaluated against a panel of Gram-positive organisms, including Staphylococcus aureus WCUH29, Streptococcus pneumoniae 1629, Streptococcus pyogenes CN 10, and Enterococcus faecalis 2. In addition, compounds were evaluated against a panel of Gram-negative strains including Haemophilus influenzae NEMC1, E. coli 7623, and Moraxella catarrhalis Ravasio. The minimum inhibitory concentration (MIC) was determined as the lowest concentration of compound that inhibited visible growth. A mirror reader was used to assist in determining the MIC endpoint.
Compounds of the present invention have MIC's ≦20 μg/ml versus all the organisms named above.
Background: In broth dilution the organism is exposed to a series of concentrations in liquid medium.

Turning to `Cl.Cl.O=C1CSc2ccc(CNC3CCN(CCc4c(Cl)cnc5ccc(Cl)cc45)CC3)nc2N1` [Example 27, 6-({1-[2-(3,6-Dichloro-quinolin-4-yl)-ethyl]-piperidin-4-ylamino}-methyl)-4H-pyrido[3,2-b][1,4]thiazin-3-one Dihydrochloride], the MIC was no more than 2 µg/mL. The figure for `COc1ccc2ncc(Cl)c(CCN3CC[C@H](NCc4ccc5c(n4)NC(=O)CS5)[C@H](O)C3)c2n1.Cl.Cl` (single isomer, unassigned; enantiomer 1) [Example 11, 6-({(cis)-1-[2-(3-Chloro-6-methoxy-[1,5]naphthyridin-4-yl)-ethyl]-3-hydroxy-piperidin-4-ylamino}-methyl)-4H-pyrido[3,2-b][1,4]thiazin-3-one Dihydrochloride Enantiomer 1] is no more than 2 µg/mL. Take `COc1ccc2ncc(Cl)c(CCN3CC[C@@H](NCc4ccc5c(n4)NC(=O)CS5)[C@H](O)C3)c2n1.Cl.Cl` (single isomer, unassigned; enantiomer 2) [Example 39, (trans)-6-({1-[2-(3-Chloro-6-methoxy-[1,5]naphthyridin-4-yl)-ethyl]-3-hydroxy-piperidin-4-ylamino}-methyl)-4H-pyrido[3,2-b][1,4]-thiazin-3-one Dihydrochloride Enantiomer 2]: the MIC is no more than 2 µg/mL.

For the molecule `COc1cc(F)c2ncc(Cl)c(CCN3CC[C@H](NCc4ccc5c(n4)NC(=O)CS5)[C@H](O)C3)c2c1.Cl.Cl` (single isomer, unassigned; enantiomer 1) [Example 97], the MIC is no more than 2 µg/mL. For the molecule `COc1cc(F)c2ncc(Cl)c(CCN3CCC(NCc4cc5c(cn4)OCCO5)CC3)c2c1` [Example 161, 1-{2-[3-chloro-8-fluoro-6-(methoxy)-4-quinolinyl]ethyl}-N-(2,3-dihydro[1,4]dioxino[2,3-c]pyridin-7-ylmethyl)-4-piperidinamine], the MIC is no more than 2 µg/mL. As for `COc1cc(F)c2ncc(Cl)c(CCN3CC[C@H](NCc4cc5c(cn4)OCCO5)[C@H](O)C3)c2c1.Cl.Cl` [Example 98, (3R,4S)-1-{2-[3-chloro-8-fluoro-6-(methoxy)-4-quinolinyl]ethyl}-4-[(2,3-dihydro[1,4]dioxino[2,3-c]pyridin-7-ylmethyl)amino]-3-piperidinol dihydrochloride], the MIC is no more than 2 µg/mL.

On to `COc1c(F)ccc2ncc(Cl)c(CCN3CCC(NCc4ccc5c(n4)NC(=O)CS5)CC3)c12.Cl.Cl` [Example 22, 6-({1-[2-(3-Chloro-6-fluoro-5-methoxy-quinolin-4-yl)-ethyl]-piperidin-4-ylamino}-methyl)-4H-pyrido[3,2-b][1,4]thiazin-3-one Dihydrochloride], for which the MIC is no more than 2 µg/mL.

Consider `COc1ccc2ncc(F)c(CCN3CC[C@@H](NCc4ccc5c(n4)NC(=O)CO5)[C@H](O)C3)c2c1.Cl.Cl` (relative stereo) [Example 133, trans-6-{[(1-{2-[3-fluoro-6-(methoxy)-4-quinolinyl]ethyl}-3-hydroxy-4-piperidinyl)amino]methyl}-2H-pyrido[3,2-b][1,4]oxazin-3(4H)-one dihydrochloride], for which the MIC is no more than 2 µg/mL. For `COc1ccc2ncc(F)c(CCN3CCC(NC(=O)c4ccc5c(n4)NC(=O)CS5)CC3)c2c1.Cl` [Example 95, N-(1-{2-[3-fluoro-6-(methoxy)-4-quinolinyl]ethyl}-4-piperidinyl)3-oxo-3,4-dihydro-2H-pyrido[3,2-b][1,4]thiazine-6-carboxamide hydrochloride], the MIC was no more than 2 µg/mL. Consider `Cc1ccc2ncc(Cl)c(CCN3CCC(NCc4ccc5c(n4)NC(=O)CS5)CC3)c2n1.Cl.Cl` [Example 23, 6-({1-[2-(3-Chloro-6-methyl-[1,5]naphthyridin-4-yl)-ethyl]-piperidin-4-ylamino}-methyl)-4H-pyrido[3,2-b][1,4]thiazin-3-one Dihydrochloride], for which the MIC was no more than 2 µg/mL. Take `COc1ccc2ncc(Cl)c(CCN3CCC(NCc4cc5c(cn4)OCCO5)CC3)c2c1.Cl.Cl` [Example 4, {1-[2-(3-Chloro-6-methoxy-quinolin-4-yl)-ethyl]-piperidin-4-yl}-(2,3-dihydro-[1,4]dioxino[2,3-c]pyridin-7-ylmethyl)-amine Dihydrochloride]: the MIC is no more than 2 µg/mL.

`COc1ccc2ncc(F)c(CCN3CCC(NCc4ccc5c(n4)NC(=O)CO5)CC3)c2n1.Cl.Cl` [Example 55, 6-{[(1-{2-[3-fluoro-6-(methoxy)-1,5-naphthyridin-4-yl]ethyl}-4-piperidinyl)amino]methyl}-2H-pyrido[3,2-b][1,4]oxazin-3(4H)-one dihydrochloride]: the MIC is no more than 2 µg/mL. The figure for `COc1ccc2ncc(F)c(CCN3CC[C@@H](NCc4cc5c(cn4)OCCO5)[C@@H](O)C3)c2n1.Cl.Cl` (single isomer, unassigned; enantiomer 2) [Example 158] is no more than 2 µg/mL; for `COc1ccc2ncc(F)c(CCN3CC[C@H](NCc4cc5c(cn4)OCCO5)[C@H](O)C3)c2c1.Cl.Cl.Cl.Cl` (single isomer, unassigned; enantiomer 1) [Example 34, cis-4-[(2,3-Dihydro-[1,4]dioxino[2,3-c]pyridin-7-ylmethyl)-amino]-1-[2-(3-fluoro-6-methoxy-quinolin-4-yl)-ethyl]-piperidin-3-ol dihydrochloride dihydrochloride Enantiomer 1] it is no more than 2 µg/mL. As for `COc1ccc2ncc(Br)c(CCN3CCC(NCc4cc5c(cn4)OCCO5)CC3)c2c1.Cl.Cl` [Example 44, {1-[2-(3-Bromo-6-methoxy-quinolin-4-yl)-ethyl]-piperidin-4-yl}-(2,3-dihydro-[1,4]dioxino[2,3-c]pyridin-7-ylmethyl)-amine Dihydrochloride], the MIC is no more than 2 µg/mL. On to `COc1ccc2ncc(F)c(CCN3CCC(NCc4cc5c(cn4)OCCC5)CC3)c2n1.Cl.Cl` [Example 126, N-(3,4-dihydro-2H-pyrano[2,3-c]pyridin-6-ylmethyl)-1-{2-[3-fluoro-6-(methoxy)-1,5-naphthyridin-4-yl]ethyl}-4-piperidinamine dihydrochloride], for which the MIC is no more than 2 µg/mL. As for `COc1ccc2ncc(F)c(CCN3CCC(CO)(NCc4cc5c(cn4)OCCO5)CC3)c2c1.Cl.Cl` [Example 92, (4[(2,3-dihydro[1,4]dioxino[2,3-c]pyridin-7-ylmethyl)amino]-1-{2-[3-fluoro-6-(methoxy)-4-quinolinyl]ethyl}-4-piperidinyl)methanol dihydrochloride], the MIC is no more than 2 µg/mL.

As for `COc1ccc2ncc(Cl)c(CCN3CCC(NCc4cc5c(cn4)OCCO5)CC3)c2n1.Cl.Cl` [Example 3, {1-[2-(3-Chloro-6-methoxy-[1,5]naphthyridin-4-yl)-ethyl]-piperidin-4-yl}-(2,3-dihydro-[1,4]dioxino[2,3-c]pyridin-7-ylmethyl)-amine Dihydrochloride], the MIC was no more than 2 µg/mL. `COc1ccc2ncc(Cl)c(CCN3CC[C@H](NCc4cc5c(cn4)OCCO5)[C@H](O)C3)c2n1.Cl.Cl` (single isomer, unassigned; enantiomer 1) [Example 29, (cis)-1-[2-(3-Chloro-6-methoxy-[1,5]naphthyridin-4-yl)-ethyl]-4-[(2,3-dihydro-[1,4]dioxino[2,3-c]pyridin-7-ylmethyl)-amino]-piperidin-3-ol Dihydrochloride Enantiomer 1]: the MIC was no more than 2 µg/mL. On to `COc1ccc2ncc(Cl)c(CCN3CC[C@H](NCc4ccc5c(n4)NC(=O)CO5)[C@H](O)C3)c2n1.Cl.Cl` (single isomer, unassigned; enantiomer 2) [Example 10, 6-({(cis)-1-[2-(3-Chloro-6-methoxy-[1,5]naphthyridin-4-yl)-ethyl]-3-hydroxy-piperidin-4-ylamino}-methyl)-4H-pyrido[3,2-b][1,4]oxazin-3-one Dihydrochloride Enantiomer 2], for which the MIC is no more than 2 µg/mL.

With `COc1cc(F)c2ncc(Cl)c(CCN3CC[C@H](NCc4ccc5c(n4)NC(=O)CS5)[C@H](F)C3)c2c1.Cl.Cl` (single isomer, unassigned; enantiomer 1) [Example 142, cis-6-{[(1-{2-[3-chloro-8-fluoro-6-(methoxy)-4-quinolinyl]ethyl}-3-fluoro-4-piperidinyl)amino]methyl}-2H-pyrido[3,2-b][1,4]thiazin-3(4H)-one dihydrochloride Enantiomer 1], the MIC is no more than 2 µg/mL.

On to `Cl.Cl.O=C1CSc2ccc(CNC3CCN(CCc4c(F)cnc5ccc(F)cc45)CC3)nc2N1` [Example 106, 6-[({1-[2-(3,6-difluoro-4-quinolinyl)ethyl]-4-piperidinyl}amino)methyl]-2H-pyrido[3,2-b][1,4]thiazin-3(4H)-one dihydrochloride], for which the MIC was no more than 2 µg/mL. For the molecule `COc1ccc2ncc(F)c(CCN3CCC(NCc4cnc5c(c4)NC(=O)CS5)CC3)c2n1.Cl.Cl` [Example 56, 7-{[(1-(2-[3-fluoro-6-(methoxy)-1,5-naphthyridin-4-yl]ethyl}-4-piperidinyl)amino]methyl}-1H-pyrido[2,3-b][1,4]thiazin-2(3H)-one dihydrochloride], the MIC is no more than 2 µg/mL.

Take `COc1cc(F)c2ncc(F)c(CCN3CC[C@H](NCc4cc5c(cn4)OCCO5)[C@H](O)C3)c2c1.Cl.Cl.Cl.Cl` (single isomer, unassigned; enantiomer 1) [Example 74]: the MIC was no more than 2 µg/mL. In the case of `COc1cc(F)c2ncc(F)c(CCN3CC[C@H](NCc4ccc5c(c4)OCCO5)[C@H](F)C3)c2c1.Cl.Cl` (single isomer, unassigned; enantiomer 1) [Example 147, cis-1-{2-[3,8-difluoro-6-(methoxy)-4-quinolinyl]ethyl}-N-(2,3-dihydro-1,4-benzodioxin-6-ylmethyl)-3-fluoro-4-piperidinamine dihydrochloride, Enantiomer 1], the MIC was no more than 2 µg/mL.
